Assay results taken from patent US20260297131A1, “COMPOSITIONS AND METHODS FOR PEPTIDE-BASED MODULATORS OF HUMAN PAPILLOMAVIRUS ONCOPROTEIN E6” (priority 2023, published 2026).
Read-outs that look alike come from different tables or passages of the source. Square brackets hold non-standard residues; d marks the D form. Peptide text beside a SMILES is read from it. * marks the point of attachment. Acetyl(9-fluorenyl) = O=C(CC1c2ccccc2-c2ccccc21)*; Anthracene1carbonyl = O=C(c1cccc2cc3ccccc3cc12)*; 2Nal = N[C@@H](Cc1ccc2ccccc2c1)C(=O)O; Gly(cPent) = N[C@H](C(=O)O)C1CCCC1; Aad = N[C@@H](CCCC(=O)O)C(=O)O; Cba = N[C@@H](CC1CCC1)C(=O)O; Aib = CC(C)(N)C(=O)O; Dha = C=C(N)C(=O)O

Legend:
MBP-16E6 L57A = MBP-16E6 L57A (Human papillomavirus 16, UniProt P03126, C104S/C118S/C147S/C87S/L57A); details: 10 μM reactide 18
MBP-16E6 C58S = MBP-16E6 C58S (Human papillomavirus 16, UniProt P03126, C104S/C118S/C147S/C58S/C87S); details: 12 h, PBS, 37° C.
MBP-16E6 [1] = molecular target: T1, MBP-16E6 (Human papillomavirus 16, UniProt P03126, C104S/C118S/C147S/C87S)
MBP-16E6 [2] = molecular target: T1, MBP-16E6; details: for crosslinking to MBP-16E6: LC-MS
MBP-16E6 [3] = molecular target: T1, MBP-16E6; remark: listed apart in the source
MBP-16E6 [4] = molecular target: T1, MBP-16E6; details: 1 μM MBP-16E6, Dha peptide mixture 12 μM, 2 h, 37° C.
[5] = molecular target: bovine serum albumin (BSA) (Bos taurus, UniProt P02769); assay: Crosslinking in a protein mixture, BSA; format: binding; details: 10 μM peptide, 37° C., 12 h
bovine serum albumin (BSA), sequence (P02769 25-607): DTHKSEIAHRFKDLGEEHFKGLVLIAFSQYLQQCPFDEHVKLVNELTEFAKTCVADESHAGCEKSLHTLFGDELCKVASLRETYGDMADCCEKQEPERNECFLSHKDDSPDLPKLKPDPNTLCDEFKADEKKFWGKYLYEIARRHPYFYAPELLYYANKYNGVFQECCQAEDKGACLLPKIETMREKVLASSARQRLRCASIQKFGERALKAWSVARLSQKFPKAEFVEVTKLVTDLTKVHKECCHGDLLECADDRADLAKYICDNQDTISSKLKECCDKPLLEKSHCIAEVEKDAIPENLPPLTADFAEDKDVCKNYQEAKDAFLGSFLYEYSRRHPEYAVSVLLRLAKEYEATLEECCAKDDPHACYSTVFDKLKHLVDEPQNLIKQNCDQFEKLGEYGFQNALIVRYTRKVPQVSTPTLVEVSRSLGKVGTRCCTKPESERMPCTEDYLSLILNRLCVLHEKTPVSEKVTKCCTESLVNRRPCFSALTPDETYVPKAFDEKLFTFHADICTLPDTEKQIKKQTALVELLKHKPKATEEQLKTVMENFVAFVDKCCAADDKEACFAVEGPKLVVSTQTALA

16E6/E6AP = 16E6/E6AP (Human papillomavirus 16, UniProt P03126, C104S/C118S/C147S/C87S); details: 1 μM MBP-16E6
THRA = molecular target: T2, THRA (Homo sapiens, UniProt P10827); format: binding
T2 sequence (P10827 148-410 limits assumed): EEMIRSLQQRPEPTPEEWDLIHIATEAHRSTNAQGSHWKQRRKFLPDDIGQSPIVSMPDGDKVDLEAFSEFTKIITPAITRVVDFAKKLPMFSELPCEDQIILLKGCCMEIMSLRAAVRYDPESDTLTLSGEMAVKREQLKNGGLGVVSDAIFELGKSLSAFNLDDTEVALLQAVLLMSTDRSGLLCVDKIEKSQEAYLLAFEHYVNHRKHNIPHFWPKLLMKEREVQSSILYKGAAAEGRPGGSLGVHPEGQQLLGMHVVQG

Sumo-MDM2 = Sumo-MDM2 (Homo sapiens, UniProt Q00987); assay: Crosslinking in a protein mixture, Sumo-MDM2; format: binding; details: 10 μM peptide, 37° C., 12 h
Sumo-MDM2, sequence (Q00987 25-109): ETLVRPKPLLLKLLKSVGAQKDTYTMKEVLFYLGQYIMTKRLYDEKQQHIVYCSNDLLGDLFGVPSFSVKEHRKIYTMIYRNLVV

SMILES	crosslinking to L57A (MBP-16E6 L57A)	crosslinking to C58S (MBP-16E6 C58S; 10 μM reactide 18)	improved affinity compared to parent reactide ELT-DHA9G (MBP-16E6 [1])	mono-crosslinking (MBP-16E6 [2]; 10 μM reactide, 1 μM MBP-16E6, PBS, 37° C., 2 h)	crosslinking to MBP-16E6 (MBP-16E6 [2])	improvement over E3 (ELT-DHA9G) (MBP-16E6 [3]; kinetic study, kinact/Ki)	kinact/Ki (MBP-16E6 [3]; role: inhibitor)	kinact (MBP-16E6 [3]; role: inhibitor, first-order rate constant, steady-state approximation)	mono-crosslink yield in competitive mixture (MBP-16E6 [4])	modification of BSA [5]	crosslinking to C58S (MBP-16E6 C58S; 3 μM peptide)	crosslinking to C58S (MBP-16E6 C58S; 3 μM peptide, listed as peptide 13)	BLI response signal to immobilized E6AP protein (16E6/E6AP)	crosslink to THRA (THRA)	modification of MDM2 (Sumo-MDM2)	mono-crosslinked conversion of 16E6 in protein mixture (MBP-16E6 [2]; protein mixture with BSA and Sumo-MDM2 (1 μM each), 10 μM peptide, 37° C., 12 h)
C=C(NC(=O)[C@H](CC(C)C)NC(=O)[C@H](CC1CCC1)NC(=O)[C@H](CCC(=O)O)NC(=O)C(C)(C)NC(=O)[C@H](CC(C)C)NC(=O)[C@@H](NC(=O)[C@H](Cc1ccc2ccccc2c1)NC(=O)[C@@H](N)CCCC(=O)O)C1CCCC1)C(=O)N[C@@H](CCC(=O)O)C(=O)N[C@@H](CCC(=O)O)C(=O)N[C@@H](CCCNC(=N)N)C(N)=O [peptide 18] (H-[Aad][2Nal][Gly(cPent)]L[Aib]E[Cba]L[Dha]EER-NH2)	no crosslinking	No crosslinking	50 fold	> 95%	Quantitative mono-crosslinked	50 fold	22700 M⁻¹ s⁻¹	0.018 s⁻¹	83%							
C=C(NC(=O)[C@H](CC(C)C)NC(=O)[C@H](CC(C)C)NC(=O)[C@H](CCC(=O)O)NC(=O)[C@H](CCC(N)=O)NC(=O)[C@H](CC(C)C)NC(=O)[C@@H](NC(=O)[C@H](CC(C)C)NC(=O)[C@H](CCC(=O)O)NC(=O)[C@H](C)NC(=O)[C@H](CO)NC(=O)[C@H](CCC(N)=O)NC(=O)[C@@H]1CCCN1C(=O)[C@@H](NC(=O)CC1c2ccccc2-c2ccccc21)[C@@H](C)CC)[C@@H](C)O)C(=O)N[C@@H](CCCNC(=N)N)C(=O)N[C@@H](CCCNC(=N)N)C(=O)N[C@@H](CCCCN)C(=O)N[C@@H](CCCCN)C(=O)N[C@@H](CCCCNC(=O)c1cccc2cc3ccccc3cc12)C(N)=O [reactide 13] ({Acetyl(9-fluorenyl)}-IPQSAELTLQELL[Dha]RRKKK(Anthracene1carbonyl)-NH2)					Quantitative mono-crosslinked					no observable modifications	No crosslinking	no appreciable amount of reaction product	significantly decreased BLI response signal	no crosslink	no observable modifications	> 95%
